Assay results taken from paper PMC6013247, “Preclinical characterization of INCB053914, a novel pan-PIM kinase inhibitor, alone and in combination with anticancer agents, in models of hematologic malignancies” (PLoS ONE, 2018).

How the values were obtained:
[1] = system: BAD phosphorylation in MOLM-16 tumors; assay: Intratumoral pBAD inhibition in xenograft-bearing mice; type: in vivo; conditions: Mus musculus, MOLM16, single oral dose, 4 hours post dose, read-out: IC50, inhibition of BAD phosphorylation relative to vehicle in tumors
Procedure: (§1) Human MOLM-16 (AML) and KMS-12-BM (MM) xenografts were established in SCID mice. For the evaluation of intratumoral pBAD inhibition, tumor-bearing mice (three to eight mice/group) were treated with a single oral dose of INCB053914 at doses ranging from 0 (vehicle) to 100 mg/kg. In one representative experiment, mice were sacrificed 4 hours after a single dose, and tumors were collected to analyze the levels of pBAD relative to those of vehicle-administered controls. Plasma samples were collected for pharmacokinetic analysis.

[2] = system: BAD phosphorylation in KMS-12-BM tumors; assay: as above; type: in vivo; conditions: Mus musculus, single oral dose, 4 hours post dose, read-out: IC50, inhibition of BAD phosphorylation relative to vehicle in tumors
Procedure: as §1

[3] = system: NOMO1; assay: Cell proliferation assay ([3H]-thymidine); type: cell-based; conditions: NOMO1 (AML)
Procedure: (§2) The antiproliferative effects of INCB053914 on hematologic tumor cells were investigated using assays described in the Supporting Information (S2 File).
(§3) Cell proliferation assays. […] After 3 to 4 days, [^3H]-thymidine (1 μCi/well) (PerkinElmer) in PBS (10 μl) was added to the cell culture for an additional 12 hours. The incorporated radioactivity was separated by filtration with water through GF/B filters (Packard Bioscience, Meriden, Connecticut) and measured by liquid scintillation counting with a TopCount (Packard Bioscience).

[4] = system: Jurkat; assay: Cell proliferation assay ([3H]-thymidine); type: cell-based; conditions: Jurkat (T-ALL)
Procedure: as §2, §3

[5] = system: HBL-1; assay: Cell proliferation assay ([3H]-thymidine); type: cell-based; conditions: HBL1; HBL-1 (DLBCL); read-out: Mean (± SD) GI50
Procedure: as §2, §3

[6] = system: GDM-1; assay: Cell proliferation assay ([3H]-thymidine); type: cell-based; conditions: Homo sapiens; GDM-1 (AML); read-out: Mean (± SD) GI50
Procedure: as §2, §3

[7] = system: JM-1; assay: Cell proliferation assay ([3H]-thymidine); type: cell-based; conditions: JM-1 (T-ALL)
Procedure: as §2, §3

[8] = system: Reh; assay: Cell proliferation assay ([3H]-thymidine); type: cell-based; conditions: Reh (T-ALL)
Procedure: as §2, §3

[9] = system: OCI-LY-19; assay: Cell proliferation assay ([3H]-thymidine); type: cell-based; conditions: OCI-LY-19 (DLBCL)
Procedure: as §2, §3

[10] = system: KMS-12-BM; assay: Cell proliferation assay ([3H]-thymidine); type: cell-based; conditions: Homo sapiens; KMS-12-BM (MM); read-out: Mean (± SD) GI50
Procedure: as §2, §3

[11] = system: RPMI8226; assay: Cell proliferation assay ([3H]-thymidine); type: cell-based; conditions: RPMI8226 (MM)
Procedure: as §2, §3

[12] = system: U2932; assay: Cell proliferation assay ([3H]-thymidine); type: cell-based; conditions: U2932 (DLBCL)
Procedure: as §2, §3

[13] = system: CCRF-CEM; assay: Cell proliferation assay ([3H]-thymidine); type: cell-based; conditions: Homo sapiens; CCRF-CEM (T-ALL); read-out: Mean (± SD) GI50
Procedure: as §2, §3

[14] = system: Toledo; assay: Cell proliferation assay ([3H]-thymidine); type: cell-based; conditions: Toledo (DLBCL)
Procedure: as §2, §3

[15] = system: KMS-11; assay: Cell proliferation assay ([3H]-thymidine); type: cell-based; conditions: KMS-11 (MM)
Procedure: as §2, §3

[16] = system: KARPASS-422; assay: Cell proliferation assay ([3H]-thymidine); type: cell-based; conditions: read-out: Mean (± SD) GI50
Procedure: as §2, §3

[17] = system: HL-60; assay: Cell proliferation assay ([3H]-thymidine); type: cell-based; conditions: Homo sapiens; HL-60 (AML); read-out: Mean (± SD) GI50
Procedure: as §2, §3

[18] = system: EOL; assay: Cell proliferation assay ([3H]-thymidine); type: cell-based; conditions: EOL (AML)
Procedure: as §2, §3

[19] = system: Kasumi-1; assay: Cell proliferation assay ([3H]-thymidine); type: cell-based; conditions: Kasumi-1 (AML)
Procedure: as §2, §3

[20] = system: SKM-1; assay: Cell proliferation assay ([3H]-thymidine); type: cell-based; conditions: Homo sapiens; SKM-1 (AML); read-out: Mean (± SD) GI50
Procedure: as §2, §3

[21] = system: THP-1; assay: Cell proliferation assay ([3H]-thymidine); type: cell-based; conditions: THP-1 (AML)
Procedure: as §2, §3

[22] = system: PL-21; assay: Cell proliferation assay ([3H]-thymidine); type: cell-based; conditions: PL-21 (AML); read-out: Mean (± SD) GI50
Procedure: as §2, §3

[23] = system: OPM-2; assay: Cell proliferation assay ([3H]-thymidine); type: cell-based; conditions: OPM-2 (MM)
Procedure: as §2, §3

[24] = system: Jeko-1; assay: Cell proliferation assay ([3H]-thymidine); type: cell-based; conditions: Jeko-1 (MCL)
Procedure: as §2, §3

[25] = target: BTK (Homo sapiens, UniProt Q06187); assay: Kinase selectivity panel; type: biochemical; conditions: [ATP] = 1 mM
[26] = target: BRAF (Homo sapiens, UniProt P15056); assay: Kinase selectivity panel; type: biochemical; conditions: [ATP] = 1 mM
[27] = system: MOLM-16; assay: Cell proliferation assay ([3H]-thymidine); type: cell-based, human; conditions: MOLM-16 (AML)
Procedure: as §2, §3

[28] = system: KG-1; assay: Cell proliferation assay ([3H]-thymidine); type: cell-based, human; conditions: KG-1 (AML)
Procedure: as §2, §3

[29] = Homo sapiens, read-out: Mean (± SD) GI50

BRAF, sequence (P15056 whole entry): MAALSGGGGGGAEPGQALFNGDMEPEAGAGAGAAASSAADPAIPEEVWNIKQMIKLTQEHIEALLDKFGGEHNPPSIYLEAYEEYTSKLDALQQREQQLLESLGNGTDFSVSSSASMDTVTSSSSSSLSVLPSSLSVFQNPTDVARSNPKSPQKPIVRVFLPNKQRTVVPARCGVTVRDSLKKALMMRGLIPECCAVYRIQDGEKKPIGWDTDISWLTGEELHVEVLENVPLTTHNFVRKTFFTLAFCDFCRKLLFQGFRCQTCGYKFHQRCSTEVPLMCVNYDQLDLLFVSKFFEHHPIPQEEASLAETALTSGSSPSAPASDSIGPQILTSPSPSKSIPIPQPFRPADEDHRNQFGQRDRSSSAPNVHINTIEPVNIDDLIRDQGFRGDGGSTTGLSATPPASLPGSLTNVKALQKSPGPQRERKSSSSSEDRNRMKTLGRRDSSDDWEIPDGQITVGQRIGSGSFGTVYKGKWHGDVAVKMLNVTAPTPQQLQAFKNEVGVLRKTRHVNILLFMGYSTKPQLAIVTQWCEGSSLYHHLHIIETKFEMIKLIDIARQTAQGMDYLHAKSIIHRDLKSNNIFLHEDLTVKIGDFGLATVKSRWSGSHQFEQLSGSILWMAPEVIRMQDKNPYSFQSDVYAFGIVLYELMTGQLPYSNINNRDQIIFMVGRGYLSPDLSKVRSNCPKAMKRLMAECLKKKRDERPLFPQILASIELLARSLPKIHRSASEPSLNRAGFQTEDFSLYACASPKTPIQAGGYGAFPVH
BTK, sequence (Q06187 whole entry): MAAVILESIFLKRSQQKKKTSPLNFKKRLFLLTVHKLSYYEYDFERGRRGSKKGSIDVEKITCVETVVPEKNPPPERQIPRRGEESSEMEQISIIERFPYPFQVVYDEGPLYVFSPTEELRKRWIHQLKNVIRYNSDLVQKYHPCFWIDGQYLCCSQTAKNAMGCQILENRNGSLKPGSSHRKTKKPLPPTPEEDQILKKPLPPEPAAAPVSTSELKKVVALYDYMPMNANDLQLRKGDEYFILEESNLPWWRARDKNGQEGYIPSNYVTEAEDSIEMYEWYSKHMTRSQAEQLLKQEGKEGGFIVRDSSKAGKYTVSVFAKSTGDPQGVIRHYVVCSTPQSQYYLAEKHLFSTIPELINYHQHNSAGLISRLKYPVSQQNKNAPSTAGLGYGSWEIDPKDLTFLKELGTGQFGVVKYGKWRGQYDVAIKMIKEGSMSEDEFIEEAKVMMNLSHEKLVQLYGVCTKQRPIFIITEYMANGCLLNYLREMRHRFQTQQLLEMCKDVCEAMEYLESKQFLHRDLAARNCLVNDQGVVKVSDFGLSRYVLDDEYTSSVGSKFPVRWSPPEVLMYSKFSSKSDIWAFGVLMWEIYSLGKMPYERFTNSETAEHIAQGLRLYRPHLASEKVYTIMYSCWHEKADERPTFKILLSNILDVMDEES

Work on C[C@H]1CN(c2c(NC(=O)c3ccc(F)c(-c4c(F)cccc4F)n3)cnc3c2CC[C@H]3O)C[C@@H](N)[C@@H]1O.O=P(O)(O)O [INCB053914, N-((R)-4-((3R,4R,5S)-3-amino-4-hydroxy-5-methylpiperidin-1-yl)-7-hydroxy-6,7-dihydro-5H-cyclopenta[b]pyridin-3-yl)-6-(2,6-difluorophenyl)-5-fluoropicolinamide phosphate] yielded an IC50 [1] of 70 nM, an IC50 [2] of 145 nM and a GI50 ([3]; Homo sapiens, NOMO-1, read-out: Mean (± SD) GI50) of 35.9 ± 9.3 nM. For the same molecule, the “Mean (SD) maximum inhibition” value [3] was 84.6 ± 4.0%, the GI50 [4, 29] was 931 ± 800 nM and the “Mean (SD) maximum inhibition” value [4] was 66.0 ± 7.0%. The GI50 [5] was > 3000 nM, the GI50 [6] was > 3000 nM and the GI50 ([7]; Homo sapiens, JM1, read-out: Mean (± SD) GI50) was 19.5 ± 15.1 nM. The “Mean (SD) maximum inhibition” value [7] was 94.3 ± 4.9%, the GI50 [8, 29] was 33.7 ± 24.3 nM and the “Mean (SD) maximum inhibition” value [8] was 94.3 ± 5.7%. The GI50 ([9]; Homo sapiens, OCI-LY19, read-out: Mean (± SD) GI50) was 110 ± 53.6 nM, the “Mean (SD) maximum inhibition” value [9] was 69.7 ± 5.1% and the GI50 [10] was 34.2 ± 19.9 nM. For the same molecule, the GI50 ([11]; Homo sapiens, RPMI-8226, read-out: Mean (± SD) GI50) was 230 ± 132 nM, the “Mean (SD) maximum inhibition” value [11] was 96.8 ± 2.2% and the GI50 [12, 29] was 34.5 ± 10.1 nM. The “Mean (SD) maximum inhibition” value [12] was 83.6 ± 8.0%, the GI50 [13] was > 3000 nM and the GI50 [14, 29] was 70.7 ± 25.1 nM. The “Mean (SD) maximum inhibition” value [14] was 97.6 ± 1.5%, the GI50 [15, 29] was 81.8 ± 8.1 nM and the “Mean (SD) maximum inhibition” value [15] was 93.0 ± 2.5%. The GI50 [16] was > 3000 nM, the GI50 [17] was > 3000 nM and the “Mean (SD) maximum inhibition” value [18] was 99.5 ± 0.6%. The GI50 ([18]; read-out: Mean (± SD) GI50) was 18.5 ± 6.1 nM, the GI50 [19, 29] was 206 ± 76.3 nM and the “Mean (SD) maximum inhibition” value [19] was 76.7 ± 4.6%. For the same molecule, the GI50 [20] was > 3000 nM, the GI50 [21, 29] was 2050 nM and the “Mean (SD) maximum inhibition” value [21] was 76.3 ± 22.3%. The GI50 [22] was > 3000 nM, the GI50 [23, 29] was 123 ± 4.9 nM and the “Mean (SD) maximum inhibition” value [23] was 87.5 ± 8.0%. The GI50 [24, 29] was 117 ± 45.5 nM, the “Mean (SD) maximum inhibition” value [24] was 91.3 ± 2.9% and the IC50 [25] was > 20 µM. For the same molecule, the IC50 [26] was > 20 µM, the GI50 ([27]; Homo sapiens, MOLM16, read-out: Mean (± SD) GI50) was 3.3 nM and the “Mean (SD) maximum inhibition” value [27] was 99.3 ± 0.3%. For the same molecule, the GI50 [28, 29] was 17.9 ± 7.1 nM and the “Mean (SD) maximum inhibition” value [28] was 88.3 ± 3.8%.
